Assay results as given in US9988400B2 (Genentech, Inc., priority 2013, dated 2018).

Molecular target: T1, HEK cells stably transfected with tetracycline inducible hNR1 and hNR2A (Homo sapiens, UniProt Q05586+Q12879)
T1 construct: expressed in transfected cells; host or cells: HEK cells, stably transfected, tetracycline/doxycycline inducible
Experiment: Assay 1: Cell-Based Assay, cytosolic calcium response to positive allosteric modulators (with 30 μM glycine and 300 nM L-glutamate, EC30)
Details: for EC50: cytosolic calcium response, with 30 μM glycine and 300 nM L-glutamate (EC30), — = no plateau was reached; for Max %: responses scaled relative to 100 μM L-glutamate maximal response (100%) and 0 μM L-glutamate (0%)
How it was run: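 Cells induced 24 h with 7.5 μg mL^−1 doxycycline plus 500 μM (+)-ketamine, loaded 60 min at 37 °C with calcium dye in Mg-free HBSS (1.8 mM Ca, probenecid, 10 μM (+)-ketamine, pH 7.15). Peak RFU over 5 min after compound addition, scaled to 100 μM L-glutamate (100%) and 0 μM (0%); four-parameter Hill fit for EC50, max % if no plateau.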

T1 sequence (Q12879 23-1464, other chains not shown): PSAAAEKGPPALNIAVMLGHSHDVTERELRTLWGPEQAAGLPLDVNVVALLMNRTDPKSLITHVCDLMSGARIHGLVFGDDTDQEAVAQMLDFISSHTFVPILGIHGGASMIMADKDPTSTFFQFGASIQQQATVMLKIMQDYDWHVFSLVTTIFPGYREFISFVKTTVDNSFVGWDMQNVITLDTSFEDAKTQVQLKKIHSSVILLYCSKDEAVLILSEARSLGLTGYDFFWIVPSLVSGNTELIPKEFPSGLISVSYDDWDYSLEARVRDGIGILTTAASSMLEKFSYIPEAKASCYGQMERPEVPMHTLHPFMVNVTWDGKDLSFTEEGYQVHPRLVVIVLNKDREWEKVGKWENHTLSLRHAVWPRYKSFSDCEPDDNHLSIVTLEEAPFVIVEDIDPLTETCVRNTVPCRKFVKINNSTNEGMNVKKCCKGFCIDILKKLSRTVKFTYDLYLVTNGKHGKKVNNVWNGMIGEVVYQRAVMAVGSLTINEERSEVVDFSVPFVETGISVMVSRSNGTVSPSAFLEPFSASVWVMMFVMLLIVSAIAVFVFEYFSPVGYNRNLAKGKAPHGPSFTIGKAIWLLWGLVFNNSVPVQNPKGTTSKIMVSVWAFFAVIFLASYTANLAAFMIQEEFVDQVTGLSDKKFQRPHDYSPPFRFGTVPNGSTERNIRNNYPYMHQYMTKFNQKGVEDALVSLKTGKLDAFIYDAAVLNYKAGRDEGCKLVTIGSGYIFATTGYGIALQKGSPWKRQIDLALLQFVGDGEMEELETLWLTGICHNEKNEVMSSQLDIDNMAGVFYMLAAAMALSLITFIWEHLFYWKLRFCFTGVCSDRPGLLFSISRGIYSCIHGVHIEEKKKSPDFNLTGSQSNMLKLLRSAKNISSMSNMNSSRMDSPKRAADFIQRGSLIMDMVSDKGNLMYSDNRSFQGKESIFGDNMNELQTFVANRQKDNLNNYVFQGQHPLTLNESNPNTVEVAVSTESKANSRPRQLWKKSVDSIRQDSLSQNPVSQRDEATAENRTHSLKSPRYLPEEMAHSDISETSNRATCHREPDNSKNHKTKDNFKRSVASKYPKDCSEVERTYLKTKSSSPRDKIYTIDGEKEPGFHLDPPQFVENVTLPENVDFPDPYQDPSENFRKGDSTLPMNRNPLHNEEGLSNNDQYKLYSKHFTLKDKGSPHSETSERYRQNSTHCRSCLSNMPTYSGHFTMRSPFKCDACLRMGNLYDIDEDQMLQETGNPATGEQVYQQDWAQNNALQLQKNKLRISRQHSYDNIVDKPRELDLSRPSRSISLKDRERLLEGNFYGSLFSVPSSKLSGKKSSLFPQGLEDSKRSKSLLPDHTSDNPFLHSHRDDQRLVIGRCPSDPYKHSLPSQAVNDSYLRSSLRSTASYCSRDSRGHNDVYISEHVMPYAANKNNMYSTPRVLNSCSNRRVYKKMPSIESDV

| EC50 (Table 2) | Max % (Table 2) | EC50 (Table 3) | SMILES |
| --- | --- | --- | --- |
| 13.9 µM | 50% |  | Cc1sc2nc(COc3ccc(F)cc3)cc(=O)n2c1-c1ccn[nH]1 [Example 4.15, 7-((4-fluorophenoxy)methyl)-2-methyl-3-(1H-pyrazol-5-yl)-5H-thiazolo[3,2-a]pyrimidin-5-one] |
| 0.853 µM | 184% |  | CCN(Cc1cc(=O)n2c(C#N)c(C)sc2n1)c1ccc(F)c(F)c1 [Example 7.1, 7-(((3,4-difluorophenyl)(ethyl)amino)methyl)-2-methyl-5-oxo-5H-thiazolo[3,2-a]pyrimidine-3-carbonitrile] |
|  |  | 3.9 µM | CCNC(=O)c1c(C#N)sc2nc(Cc3cccc(C(F)(F)F)c3F)cc(=O)n12 [compound 105, 2-Cyano-N-ethyl-7-[[2-fluoro-3-(trifluoromethyl)phenyl]methyl]-5-oxo-thiazolo[3,2-a]pyrimidine-3-carboxamide] |
| 2.8 µM | 118% |  | CCN(Cc1cc(=O)n2c(-c3cn[nH]c3)c(C)sc2n1)c1ccc(F)cc1 [Example 5.34, 7-[(N-ethyl-4-fluoro-anilino)methyl]-2-methyl-3-(1H-pyrazol-4-yl)thiazolo[3,2-a]pyrimidin-5-one] |
|  |  | 0.611 µM | CCNC(=O)c1c(C(F)(F)F)sc2nc(Cn3nc(Cl)cc3Cl)cc(=O)n12 [compound 256, 7-[(3,5-dichloropyrazol-1-yl)methyl]-N-ethyl-5-oxo-2-(trifluoromethyl)thiazolo[3,2-a]pyrimidine-3-carboxamide] |
|  | 103% |  | CCN(Cc1cc(=O)n2c(I)c(C)sc2n1)c1ccc(F)cc1 [Example 11.4, 7-[(N-ethyl-4-fluoro-anilino)methyl]-3-iodo-2-methyl-thiazolo[3,2-a]pyrimidin-5-one] |
|  | 98.8% |  | Cc1sc2nc(COc3ccc(F)cc3)cc(=O)n2c1[C@@H]1C[C@H]1CC#N (relative stereo) [Example 4.26, trans-2-[2-[7-(4-Fluorophenoxymethyl)-2-methyl-5-oxo-5H-[1,3]thiazolo[3,2-a]pyrimidin-3-yl]cyclopropyl]acetonitrile] |
| 5 µM | 133% |  | CCN(Cc1cc(=O)n2cc(C)sc2n1)c1ccccc1 [Example 11.6, 7-[(N-ethylanilino)methyl]-2-methyl-thiazolo[3,2-a]pyrimidin-5-one] |
|  |  | 7.45 µM | Cc1sc2nc(Cn3nc(Cl)cc3C(F)(F)F)cc(=O)n2c1C1CCC1 [compound 189, 7-[[3-chloro-5-(trifluoromethyl)pyrazol-1-yl]methyl]-3-cyclobutyl-2-methyl-thiazolo[3,2-a]pyrimidin-5-one] |
| 22.9 µM | 169% |  | CCN(Cc1cc(=O)n2c(CO)c(C)sc2n1)c1cccc(C#N)c1 [Example 10.23, 3-(ethyl((3-(hydroxymethyl)-2-methyl-5-oxo-5H-thiazolo[3,2-a]pyrimidin-7-yl)methyl)amino)benzonitrile] |
|  |  | 0.0831 µM | O=c1cc(Cn2nc(C(F)(F)F)cc2Cl)nc2sc(C(F)(F)F)c([C@@H]3C[C@H]3CO)n12 (single isomer, unassigned) [compound 269] |
|  |  | 1.16 µM | CNC(=O)c1c(C(F)(F)F)sc2nc(Cn3nc(C(F)(F)F)cc3Cl)cc(=O)n12 [compound 55, 7-[[5-chloro-3-(trifluoromethyl)pyrazol-1-yl]methyl]-N-methyl-5-oxo-2-(trifluoromethyl)thiazolo[3,2-a]pyrimidine-3-carboxamide] |
|  |  | 3.57 µM | Cc1sc2nc(Cc3nn(C)cc3Cl)cc(=O)n2c1C1CC1C#N (stereo not drawn) [compound 271, 2-[7-[(4-chloro-1-methyl-pyrazol-3-yl)methyl]-2-methyl-5-oxo-thiazolo[3,2-a]pyrimidin-3-yl]cyclopropanecarbonitrile] |
|  |  | 0.201 µM | Cc1sc2nc(Cn3nc(C(F)(F)F)cc3Cl)cc(=O)n2c1C(=O)C(F)(F)F [compound 198, 7-[[5-chloro-3-(trifluoromethyl)pyrazol-1-yl]methyl]-2-methyl-3-(2,2,2-trifluoroacetyl)thiazolo[3,2-a]pyrimidin-5-one] |
|  |  | 0.753 µM | Cc1sc2nc(Cn3nc(C(F)(F)F)cc3Cl)cc(=O)n2c1C(F)(F)F [compound 160, 7-[[5-chloro-3-(trifluoromethyl)pyrazol-1-yl]methyl]-2-methyl-3-(trifluoromethyl)thiazolo[3,2-a]pyrimidin-5-one] |
|  | 42.7% |  | Cc1sc2nc(COc3ccc(F)cc3)cc(=O)n2c1C(=O)NCCCO [Example 1.14, 7-((4-fluorophenoxy)methyl)-N-(3-hydroxypropyl)-2-methyl-5-oxo-5H-thiazolo[3,2-a]pyrimidine-3-carboxamide] |
|  | 75.0% |  | CNC(=O)c1c(C)sc2nc(Cc3cc(Cl)cc(C#N)c3)cc(=O)n12 [Example 21.51, 7-[(3-chloro-5-cyano-phenyl)methyl]-N,2-dimethyl-5-oxo-thiazolo[3,2-a]pyrimidine-3-carboxamide] |

| EC50 (Table 2) | Max % (Table 2) | EC50 (Table 3) | SMILES |
| --- | --- | --- | --- |
|  |  | 0.0742 µM | CCN(Cc1cc(=O)n2c(C3CC3C#N)c(C)sc2n1)c1ccc(F)cn1 (stereo not drawn) [compound 195, 2-[7-[[ethyl-(5-fluoro-2-pyridyl)amino]methyl]-2-methyl-5-oxo-thiazolo[3,2-a]pyrimidin-3-yl]cyclopropanecarbonitrile] |
| 2.3 µM | 138% |  | CCN(Cc1cc(=O)n2c3c(sc2n1)CCC3COC)c1ccc(F)cc1 (stereo not drawn) [Example 8.15, 2-((ethyl(4-fluorophenyl)amino)methyl)-6-(methoxymethyl)-7,8-dihydrocyclopenta[4,5]thiazolo[3,2-a]pyrimidin-4(6H)-one] |
| 0.376 µM | 156% |  | CCN(Cc1cc(=O)n2c(C#N)c(C)sc2n1)c1ccc(F)cc1 [Example 7.3, 7-[(N-ethyl-4-fluoro-anilino)methyl]-2-methyl-5-oxo-thiazolo[3,2-a]pyrimidine-3-carbonitrile] |
|  |  | 6.1 µM | Cc1sc2nc(Cc3cccc(C#N)c3F)cc(=O)n2c1C1CC1(F)F (stereo not drawn) [compound 39, 3-[[3-(2,2-Difluorocyclopropyl)-2-methyl-5-oxo-thiazolo[3,2-a]pyrimidin-7-yl]methyl]-2-fluorobenzonitrile] |
|  |  | 0.0666 µM | COc1cc(C(F)(F)F)nn1Cc1cc(=O)n2c(C3CC3C#N)c(C)sc2n1 (stereo not drawn) [compound 209, 2-[7-[[5-methoxy-3-(trifluoromethyl)pyrazol-1-yl]methyl]-2-methyl-5-oxo-thiazolo[3,2-a]pyrimidin-3-yl]cyclopropanecarbonitrile] |
| 30.4 µM |  |  | O=c1cc(Cn2nc(C(F)(F)F)cc2C2CC2)nc2sc3c(n12)CCC3 [Example 27.5, 10-{[5-cyclopropyl-3-(trifluoromethyl)-1H-pyrazol-1-yl]methyl}-7-thia-1,9-diazatricyclo[6.4.0.0^{2,6}]dodeca-2(6),8,10-trien-12-one] |
| 17.7 µM | 115% |  | Cc1sc2nc(Cn3nc(C4CC4)cc3C)cc(=O)n2c1C1CC1CO (single isomer, unassigned) [Example 15.16, 7-[(3-cyclopropyl-5-methyl-pyrazol-1-yl)methyl]-3-[2-(hydroxymethyl)cyclopropyl]-2-methyl-thiazolo[3,2-a]pyrimidin-5-one] |
| 10 µM | 123% |  | CCN(Cc1cc(=O)n2c(N3CCOCC3)c(C)sc2n1)c1ccc(F)cc1 [Example 6.1, 7-((ethyl(4-fluorophenyl)amino)methyl)-2-methyl-3-morpholino-5H-thiazolo[3,2-a]pyrimidin-5-one] |
|  | 51.9% |  | CCNC(=O)c1c(C)sc2nc(Cc3ccccc3F)cc(=O)n12 [Example 21.44, N-ethyl-7-(2-fluorobenzyl)-2-methyl-5-oxo-5H-thiazolo[3,2-a]pyrimidine-3-carboxamide] |
|  |  | 8.92 µM | CCNC(=O)c1c(OCC)sc2nc(Cn3nc(Cl)cc3C(F)(F)F)cc(=O)n12 [compound 176, 7-[[3-chloro-5-(trifluoromethyl)pyrazol-1-yl]methyl]-2-ethoxy-N-ethyl-5-oxo-thiazolo[3,2-a]pyrimidine-3-carboxamide] |
|  |  | 9.02 µM | C#Cc1cc(F)c(F)cc1Cc1cc(=O)n2c(C(=O)NC)c(C)sc2n1 [compound 37, 7-[(2-ethynyl-4,5-difluoro-phenyl)methyl]-N,2-dimethyl-5-oxo-thiazolo[3,2-a]pyrimidine-3-carboxamide] |
| 4.6 µM | 167% |  | CCN(Cc1cc(=O)n2c(Cl)csc2n1)c1ccc(F)cc1 [Example 11.5, 3-chloro-7-[(N-ethyl-4-fluoro-anilino)methyl]thiazolo[3,2-a]pyrimidin-5-one] |
|  |  | 0.507 µM | N#Cc1cccc(Cc2cc(=O)n3c(C4CC4C(F)(F)F)c(Cl)sc3n2)c1F (stereo not drawn) [compound 74, 3-[[2-chloro-5-oxo-3-[2-(trifluoromethyl)cyclopropyl]thiazolo[3,2-a]pyrimidin-7-yl]methyl]-2-fluoro-benzonitrile] |
|  | 41.6% |  | Cc1sc2nc(COc3ccc(F)cc3)cc(=O)n2c1C(=O)NCC1COC1 [Example 1.13, 7-((4-fluorophenoxy)methyl)-2-methyl-N-(oxetan-3-ylmethyl)-5-oxo-5H-thiazolo[3,2-a]pyrimidine-3-carboxamide] |
| 17.5 µM | 134% |  | Cc1sc2nc(COc3ccc(F)cc3)c(F)c(=O)n2c1[C@@H]1C[C@H]1CO (relative stereo) [Example 4.29, 6-fluoro-7-((4-fluorophenoxy)methyl)-3-(trans-2-(hydroxymethyl)cyclopropyl)-2-methyl-5H-thiazolo[3,2-a]pyrimidin-5-one] |
| 0.591 µM | 176% |  | CCN(Cc1cc(=O)n2c(C(O)CCO)c(C)sc2n1)c1ccc(F)cc1 (single isomer, unassigned) [Example 12.4, 3-(1,3-dihydroxypropyl)-7-[(N-ethyl-4-fluoro-anilino)methyl]-2-methyl-thiazolo[3,2-a]pyrimidin-5-one] |
